The target of experiment [1] is Peptidyl-prolyl cis-trans isomerase FKBP1A (Homo sapiens, UniProt P62942). As to the kind of experiment: In vitro competitive binding to FK506 binding protein 12 versus tritiated FK-506.
The subject of experiment [2] is T-cell. As to the kind of experiment: In vitro inhibition of proliferation of PMA and ionomycin stimulated murine T cells. The class given is functional, cell-based. Conditions: Mus musculus.
Experiment [3] has as its system T-cell. As to the kind of experiment: In vitro inhibition of proliferation of PMA and ionomycin stimulated murine T cells; Antagonist. In kind it is functional, cell-based, Mus musculus.

SMILES strings stand for the structures.

Sequence of Peptidyl-prolyl cis-trans isomerase FKBP1A (P62942 whole entry): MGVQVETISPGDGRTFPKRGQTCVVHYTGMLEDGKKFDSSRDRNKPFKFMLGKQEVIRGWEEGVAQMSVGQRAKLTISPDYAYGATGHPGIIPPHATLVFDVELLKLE

One may read the IC50 as the concentration that gives 50% inhibition. Lower therefore signals inhibition by little substance. As to `CC[C@@H]1/C=C(\C)C[C@H](C)[C@H](OC)[C@H]2O[C@@](O)(C(=O)C(=O)N3CCCC[C@H]3C(=O)O[C@H](/C(C)=C/[C@@H]3CC[C@@H](Oc4ccc5ccccc5c4)[C@H](OC)C3)[C@H](C)[C@@H](O)CC1=O)[C@H](C)C[C@@H]2OC`, the figures for the IC50 (in experiment [1]; in the experiment with T-cell [2]) were 74.8 nM and 1.8 nM, respectively. For the molecule `CC[C@@H]1/C=C(\C)[C@@H](O)[C@H](C)[C@H](OC)[C@H]2O[C@@](O)(C(=O)C(=O)N3CCCC[C@H]3C(=O)O[C@H](/C(C)=C/[C@@H]3CC[C@@H](Oc4ccc5c(ccn5C)c4)[C@H](OC)C3)[C@H](C)[C@@H](O)CC1=O)[C@H](C)C[C@@H]2OC`, the values for the 50% inhibitory concentration (IC50) (in experiment [1]; in the experiment on T-cell [2]) were 2.8 nM and 5.5 nM, respectively. With `CC[C@@H]1/C=C(\C)[C@@H](O)[C@H](C)[C@H](OC)[C@H]2O[C@@](O)(C(=O)C(=O)N3CCCC[C@H]3C(=O)O[C@H](/C(C)=C/[C@@H]3CC[C@@H](O)[C@H](OC)C3)[C@H](C)[C@@H](O)CC1=O)[C@H](C)C[C@@H]2OC`, the IC50 is 0.7 nM in experiment [1] and “Antagonist” with T-cell [3]. Regarding `CC[C@@H]1/C=C(\C)C[C@H](C)[C@H](OC)[C@H]2O[C@@](O)(C(=O)C(=O)N3CCCC[C@H]3C(=O)O[C@H](/C(C)=C/[C@@H]3CC[C@@H](Oc4ccc5c(ccn5C)c4)[C@H](OC)C3)[C@H](C)[C@@H](O)CC1=O)[C@H](C)C[C@@H]2OC`, the concentration for half-maximal inhibition (IC50) in experiment [1] was determined as 3.6 nM; in the experiment on T-cell [2], 0.2 nM. In the experiment with T-cell [2], `CC[C@@H]1/C=C(\C)[C@@H](O)[C@H](C)[C@H](OC)[C@H]2O[C@@](O)(C(=O)C(=O)N3CCCC[C@H]3C(=O)O[C@H](/C(C)=C/[C@@H]3CC[C@@H](Oc4ccc5ccccc5c4)[C@H](OC)C3)[C@H](C)[C@@H](O)CC1=O)[C@H](C)C[C@@H]2OC` came in with a half-maximal inhibitory concentration (IC50) of 10.2 nM.

Regarding `CC[C@@H]1/C=C(\C)C[C@H](C)[C@H](OC)[C@H]2O[C@@](O)(C(=O)C(=O)N3CCCC[C@H]3C(=O)O[C@H](/C(C)=C/[C@@H]3CC[C@@H](Oc4ccc5[nH]ccc5c4)[C@H](OC)C3)[C@H](C)[C@@H](O)CC1=O)[C@H](C)C[C@@H]2OC`, the half-maximal inhibitory concentration (IC50) worked out at 5.1 nM in experiment [1] and 0.2 nM with T-cell [2]. The matching figures for `C=CC[C@@H]1/C=C(\C)C[C@H](C)[C@H](OC)[C@H]2O[C@@](O)(C(=O)C(=O)N3CCCC[C@H]3C(=O)O[C@H](/C(C)=C/[C@@H]3CC[C@@H](O)[C@H](OC)C3)[C@H](C)[C@@H](O)CC1=O)[C@H](C)C[C@@H]2OC`: 0.8 nM and 0.2 nM. In the same order, the values of `CC[C@@H]1/C=C(\C)C[C@H](C)[C@H](OC)[C@H]2O[C@@](O)(C(=O)C(=O)N3CCCC[C@H]3C(=O)O[C@H](/C(C)=C/[C@@H]3CC[C@@H](O)[C@H](OC)C3)[C@H](C)[C@@H](O)CC1=O)[C@H](C)C[C@@H]2OC` are 1.6 nM and 0.7 nM. The matching figures for `CC[C@@H]1/C=C(\C)C[C@H](C)[C@H](OC)[C@H]2O[C@@](O)(C(=O)C(=O)N3CCCC[C@H]3C(=O)O[C@H](/C(C)=C/[C@@H]3CC[C@@H](Oc4ccccc4)[C@H](OC)C3)[C@H](C)[C@@H](O)CC1=O)[C@H](C)C[C@@H]2OC`: 10 nM and 5.4 nM.
